Consider one compound from ChEMBL document CHEMBL1201862, “PubChem BioAssay data set” (2004).

Assay [1] addresses T1, SUMO-activating enzyme (Homo sapiens, UniProt Q9UBT2). Put plainly: inhibitors of in vitro SUMOylation cascade, primary screen, biochemical, HTRF, uHTS (AID 2006). It is filed as protein-complex assay.
Another assay has as its system INS1. Nature of the assay: beta cell apoptosis inhibitors, cytokine rescue, dose response, luminescence, retest (AID 449756).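 Note: cell death triggered by IL-1 beta plus TNF-alpha plus IFN-gamma mixture; protective hits raise ATP signal compared with cytokine alone wells.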 It is filed as functional, cell-based. The settings on record: Rattus norvegicus.
Assay [2] deals with T2, Sentrin-specific protease 6 (Homo sapiens, UniProt Q9GZR1).
T2 sequence (Q9GZR1 whole entry): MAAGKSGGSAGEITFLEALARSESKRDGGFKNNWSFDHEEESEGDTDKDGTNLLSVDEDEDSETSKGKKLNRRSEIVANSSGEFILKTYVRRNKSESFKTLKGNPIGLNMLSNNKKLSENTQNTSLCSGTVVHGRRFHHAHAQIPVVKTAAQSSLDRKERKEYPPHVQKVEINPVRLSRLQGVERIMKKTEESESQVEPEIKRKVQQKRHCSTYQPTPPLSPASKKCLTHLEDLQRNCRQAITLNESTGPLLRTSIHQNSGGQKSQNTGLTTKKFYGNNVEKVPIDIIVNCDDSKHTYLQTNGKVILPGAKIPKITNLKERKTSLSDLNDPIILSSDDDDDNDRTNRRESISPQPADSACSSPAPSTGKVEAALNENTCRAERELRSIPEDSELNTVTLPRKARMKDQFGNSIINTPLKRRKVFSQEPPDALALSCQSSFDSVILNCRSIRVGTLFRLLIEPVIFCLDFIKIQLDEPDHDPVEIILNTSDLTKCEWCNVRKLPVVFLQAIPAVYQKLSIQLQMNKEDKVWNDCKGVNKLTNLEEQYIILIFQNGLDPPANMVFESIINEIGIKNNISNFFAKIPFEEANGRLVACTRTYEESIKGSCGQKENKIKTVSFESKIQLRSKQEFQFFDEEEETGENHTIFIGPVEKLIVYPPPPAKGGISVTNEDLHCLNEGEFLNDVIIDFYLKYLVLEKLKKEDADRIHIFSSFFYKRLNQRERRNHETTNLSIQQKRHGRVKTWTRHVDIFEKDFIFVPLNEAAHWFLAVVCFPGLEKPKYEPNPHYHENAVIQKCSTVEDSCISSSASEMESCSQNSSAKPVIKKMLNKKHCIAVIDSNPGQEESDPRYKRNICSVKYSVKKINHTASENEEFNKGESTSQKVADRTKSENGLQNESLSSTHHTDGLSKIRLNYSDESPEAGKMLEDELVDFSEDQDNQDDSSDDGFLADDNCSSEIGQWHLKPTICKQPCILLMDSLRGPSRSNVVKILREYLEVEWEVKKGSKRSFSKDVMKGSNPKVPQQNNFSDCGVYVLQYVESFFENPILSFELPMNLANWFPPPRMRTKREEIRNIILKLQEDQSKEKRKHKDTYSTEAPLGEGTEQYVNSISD
It is filed as functional.

In assay [3] the target is T3, Long-chain-fatty-acid--AMP ligase FadD28 (Mycobacterium tuberculosis, UniProt P9WQ59).
T3 sequence (P9WQ59 whole entry): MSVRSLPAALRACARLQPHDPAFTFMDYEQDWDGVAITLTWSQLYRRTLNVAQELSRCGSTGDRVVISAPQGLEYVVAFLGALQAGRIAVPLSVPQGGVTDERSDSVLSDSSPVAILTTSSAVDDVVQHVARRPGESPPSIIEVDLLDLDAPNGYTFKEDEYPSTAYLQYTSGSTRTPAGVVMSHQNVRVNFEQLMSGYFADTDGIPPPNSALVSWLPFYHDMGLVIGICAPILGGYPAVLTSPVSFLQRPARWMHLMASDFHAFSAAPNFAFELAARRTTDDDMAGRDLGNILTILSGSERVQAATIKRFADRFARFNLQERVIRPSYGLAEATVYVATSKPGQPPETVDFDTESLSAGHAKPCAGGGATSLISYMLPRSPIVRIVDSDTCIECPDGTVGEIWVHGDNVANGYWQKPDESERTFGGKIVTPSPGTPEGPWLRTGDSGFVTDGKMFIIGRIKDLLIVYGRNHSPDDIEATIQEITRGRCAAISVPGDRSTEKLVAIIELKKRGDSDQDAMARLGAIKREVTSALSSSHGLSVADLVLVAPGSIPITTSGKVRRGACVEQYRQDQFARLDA
Put plainly: Fluorescence polarization aasay to screen for inhibitors that compete for the binding of FadD28 to a bisubstrate Measured in Biochemical System Using Plate Reader - 2147-01_Inhibitor_Dose_CherryPick_Activity. It counts as functional, Mycobacterium tuberculosis H37Rv. A general note: In fluorescence polarisation assays a small probe gives low polarisation when free and higher when bound to something large.

The target of assay [4] is T4, Sentrin-specific protease 8 (Homo sapiens, UniProt Q96LD8).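 Note: luminescence read-out of SENP8 inhibition, dose-response confirmation following an ultra-high-throughput screen.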
T4 sequence (Q96LD8 whole entry): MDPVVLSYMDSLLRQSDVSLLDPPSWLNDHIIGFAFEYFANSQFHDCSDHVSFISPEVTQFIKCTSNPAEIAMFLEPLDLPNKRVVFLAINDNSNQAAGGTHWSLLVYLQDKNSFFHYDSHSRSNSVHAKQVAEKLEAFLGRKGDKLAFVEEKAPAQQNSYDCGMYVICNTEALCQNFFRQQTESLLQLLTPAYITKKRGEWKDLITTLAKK
It counts as functional.

In a further assay the target is T5, Caspase-3 (Homo sapiens, UniProt P42574).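 Note: Dose-response selectivity test against caspase-3 for candidate inhibitors of sentrin-specific proteases (SENPs).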
T5 sequence (P42574 whole entry): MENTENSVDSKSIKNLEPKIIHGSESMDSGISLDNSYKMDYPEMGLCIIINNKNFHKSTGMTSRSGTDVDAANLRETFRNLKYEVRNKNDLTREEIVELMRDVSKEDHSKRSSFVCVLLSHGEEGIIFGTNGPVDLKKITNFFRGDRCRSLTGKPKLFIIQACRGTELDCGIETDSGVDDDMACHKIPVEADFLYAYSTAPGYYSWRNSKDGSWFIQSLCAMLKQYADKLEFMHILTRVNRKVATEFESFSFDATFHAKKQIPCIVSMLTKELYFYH
It is filed as functional.

Assay [5] in a line: C. albicans growth with fluconazole, confirmation, fluorescence, retest (AID 2467). It is filed as functional, cell-based.
Another assay concerns the target Albumin (Bos taurus, UniProt P02769). Put plainly: Counterscreen for inhibitors of T-cell receptor (TCR)-CD3 interaction: Fluorescence-based biochemical high throughput dose response assay to identify inhibitors of T-cell receptor (TCR)-CD3 interaction using a TAMRA-labeled BSA probe. It counts as functional. Background: Counterscreens check selectivity or assay interference.

Assay [6] can be described thus: NIH-3T3 fibroblast cytotoxicity, dose response, cytotoxicity control, cell-based, fluorescence, Alamar Blue, secondary assay (AID 2327).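 Note: NIH-3T3 mouse fibroblasts cultured with fluconazole at 8 µg/mL.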 It is filed as functional.
Assay [7] deals with T1, SUMO-activating enzyme. Put plainly: SUMOylation inhibitor hit validation, confirmation, SUMOylation inhibitor project, biochemical, AlphaScreen (AID 2018). It is filed as functional. (Bead proximity is the source of the signal in Alpha formats.)
In assay [8] the target is T6, Sentrin-specific protease 7 (Homo sapiens, UniProt Q9BQF6).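 Note: Luminescence-based dose-response confirmation of ultra-high-throughput screening hits, measuring inhibition of SENP7.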
T6 sequence (Q9BQF6 whole entry): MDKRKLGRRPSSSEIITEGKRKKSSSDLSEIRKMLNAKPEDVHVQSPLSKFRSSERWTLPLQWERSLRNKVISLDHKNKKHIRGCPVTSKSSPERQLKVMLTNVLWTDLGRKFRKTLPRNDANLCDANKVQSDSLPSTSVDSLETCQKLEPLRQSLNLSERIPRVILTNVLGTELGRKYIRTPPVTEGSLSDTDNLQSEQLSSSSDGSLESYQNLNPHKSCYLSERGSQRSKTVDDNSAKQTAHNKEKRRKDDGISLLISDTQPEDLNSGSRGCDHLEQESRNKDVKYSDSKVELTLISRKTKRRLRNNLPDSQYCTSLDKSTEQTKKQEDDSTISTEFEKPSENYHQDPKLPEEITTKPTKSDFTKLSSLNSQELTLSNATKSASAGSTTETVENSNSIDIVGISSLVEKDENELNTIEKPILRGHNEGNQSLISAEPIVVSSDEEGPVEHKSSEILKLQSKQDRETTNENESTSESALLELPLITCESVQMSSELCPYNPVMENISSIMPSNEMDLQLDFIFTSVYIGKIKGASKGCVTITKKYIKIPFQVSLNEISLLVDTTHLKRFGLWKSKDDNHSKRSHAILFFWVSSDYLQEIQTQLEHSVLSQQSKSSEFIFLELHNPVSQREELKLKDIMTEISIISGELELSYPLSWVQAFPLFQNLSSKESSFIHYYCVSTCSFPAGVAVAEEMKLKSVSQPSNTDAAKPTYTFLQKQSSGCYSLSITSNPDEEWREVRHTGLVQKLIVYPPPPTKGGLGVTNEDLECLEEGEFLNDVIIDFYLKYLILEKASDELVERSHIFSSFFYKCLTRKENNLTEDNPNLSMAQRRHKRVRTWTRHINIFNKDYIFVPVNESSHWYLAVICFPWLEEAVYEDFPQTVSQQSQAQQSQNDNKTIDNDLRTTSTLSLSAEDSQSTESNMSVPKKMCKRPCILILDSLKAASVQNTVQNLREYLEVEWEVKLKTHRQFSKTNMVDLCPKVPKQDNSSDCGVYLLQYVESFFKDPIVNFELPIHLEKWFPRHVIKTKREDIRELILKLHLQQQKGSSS
It is filed as functional.

Activity calls are given as the source filed them. Cut-off read from the data, not from the text of the source, for most assays here: actives have a measured IC50 and inactives only a lower limit.

T1 sequence (Q9UBE0 whole entry): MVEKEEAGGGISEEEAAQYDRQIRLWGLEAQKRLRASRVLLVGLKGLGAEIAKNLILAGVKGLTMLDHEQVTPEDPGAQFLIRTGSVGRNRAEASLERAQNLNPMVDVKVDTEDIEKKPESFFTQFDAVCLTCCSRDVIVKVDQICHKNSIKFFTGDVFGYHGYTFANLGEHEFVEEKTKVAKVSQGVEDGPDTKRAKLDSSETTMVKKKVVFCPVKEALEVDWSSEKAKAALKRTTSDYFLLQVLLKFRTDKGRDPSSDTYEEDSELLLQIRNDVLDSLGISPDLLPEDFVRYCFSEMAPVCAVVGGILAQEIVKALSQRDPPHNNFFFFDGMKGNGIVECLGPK
T1 sequence (Q9UBT2 whole entry): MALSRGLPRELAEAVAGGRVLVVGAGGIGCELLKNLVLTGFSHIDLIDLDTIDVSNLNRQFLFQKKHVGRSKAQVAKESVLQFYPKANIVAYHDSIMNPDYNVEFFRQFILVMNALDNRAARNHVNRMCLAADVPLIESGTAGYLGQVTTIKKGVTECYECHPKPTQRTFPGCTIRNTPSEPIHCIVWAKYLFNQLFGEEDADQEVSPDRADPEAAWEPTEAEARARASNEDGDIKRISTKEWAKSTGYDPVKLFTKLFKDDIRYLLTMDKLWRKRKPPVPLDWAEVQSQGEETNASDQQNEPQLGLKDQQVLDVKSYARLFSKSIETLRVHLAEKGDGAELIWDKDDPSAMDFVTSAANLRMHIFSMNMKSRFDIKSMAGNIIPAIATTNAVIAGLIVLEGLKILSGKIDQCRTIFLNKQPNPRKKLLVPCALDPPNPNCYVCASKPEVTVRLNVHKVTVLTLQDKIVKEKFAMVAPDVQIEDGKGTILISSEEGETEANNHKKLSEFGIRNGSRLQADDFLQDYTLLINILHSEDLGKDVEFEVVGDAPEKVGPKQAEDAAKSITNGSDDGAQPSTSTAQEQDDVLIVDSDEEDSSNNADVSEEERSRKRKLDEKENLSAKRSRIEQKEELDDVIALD
Albumin, sequence (P02769 whole entry): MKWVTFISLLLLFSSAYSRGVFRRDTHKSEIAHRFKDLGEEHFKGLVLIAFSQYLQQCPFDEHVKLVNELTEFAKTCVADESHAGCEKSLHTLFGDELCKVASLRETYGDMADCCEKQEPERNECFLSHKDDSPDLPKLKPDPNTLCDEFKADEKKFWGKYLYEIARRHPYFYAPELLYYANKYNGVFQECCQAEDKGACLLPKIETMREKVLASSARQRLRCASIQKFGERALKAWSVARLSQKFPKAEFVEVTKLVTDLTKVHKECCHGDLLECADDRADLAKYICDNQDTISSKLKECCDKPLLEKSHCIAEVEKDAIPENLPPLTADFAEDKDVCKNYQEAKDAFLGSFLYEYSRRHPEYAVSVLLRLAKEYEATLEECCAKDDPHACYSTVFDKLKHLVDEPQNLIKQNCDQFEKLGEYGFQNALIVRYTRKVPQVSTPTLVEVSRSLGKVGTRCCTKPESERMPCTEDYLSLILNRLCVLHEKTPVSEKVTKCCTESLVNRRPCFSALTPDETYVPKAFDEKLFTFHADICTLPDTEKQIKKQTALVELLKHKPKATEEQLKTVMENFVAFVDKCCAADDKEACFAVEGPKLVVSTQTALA

As to `O=[N+]([O-])c1ccc(O)c(/C=N/NC(=S)Nc2ccc(Cl)cc2Cl)c1`, the IC50 at SUMO-activating enzyme [1] was 23.1 µM (active); in [2] it was 3.15 µM (active); in [4], 7.38 µM (active); at Caspase-3 it was 28.3 µM (active); at Albumin it was > 94.1 µM (inactive); on SUMO-activating enzyme [7], 1.41 µM (active). Further, the half-inhibitory concentration (IC50) in assay [8] was 3.08 µM (active). The half-maximal activity concentration (AC50) in the assay with INS1 is 1.72 µM (active); in [3], > 100 µM (inactive). The results for the EC50 in assay [5] and in assay [6] were 3.32 µM (active) and > 160 µM (inactive), respectively.

In general, IC50 refers to the concentration at which inhibition is half-maximal. As a reminder, the AC50 is the concentration at which the activity in the assay is half-maximal. Broadly, the EC50 is the concentration needed to bring the measured effect to its halfway point.
